Source: PMC12027946, “Ionic and Non-Ionic Counterparts Based on Bis(Uracilyl)Alkane Moiety with Highest Selectivity Towards Acetylcholinesterase for Protection Against Organophosphate Poisoning and Treating Alzheimer’s Disease” (International Journal of Molecular Sciences, 2025)

Key:
[1] = target: T1, human AChE (Homo sapiens, UniProt P22303); experiment: Inhibition constants (Dixon and Cornish–Bowden plots), AChE; format: biochemical
T1 construct: purchased Sigma-Aldrich
Method: (§1) Experiments were performed using four different concentrations of ATCh as a substrate for AChE, and with BuTCh as a substrate for BuChE. According to the analysis of Dixon and Cornish–Bowden plots for bisuracil 2b, AChE and BuChE inhibition is of a mixed type characterised both by competitive inhibition (Kci) and uncompetitive inhibition (Kui) components. For AChE, Kci was determined to be 55.7 ± 8.1 pM while Kui = 156 ± 18 pM (Figure 3A,B), and Kci = 0.13 ± 0.02 mM while Kui = 0.7 ± 0.06 mM for BuChE (Figure 3C,D). Inhibition of AChE and BuChE by bisuracil 3c was of a mixed type. For the AChE constant, Kci was 0.7 ± 0.04 nM while Kui 4.45 ± 1.76 nM (Figure 4A,B); for the BuChE constant, Kci = 0.04 ± 0.007 мM while Kui = 0.68 ± 0.08 мM (Figure 4C,D).
(§2) A UV-1800 Shimadzu (Shimadzu Co., Kyoto, Japan) spectrophotometer was utilised to conduct the measurements. The final enzyme concentration in the assays was in the picomolar range. In order to ascertain the levels of spontaneous hydrolysis of the enzyme and substrate in the absence of an inhibitor, controls were performed for each substrate concentration. The change in absorption was then recorded over a period of three minutes. The inhibition constants were determined from a Dixon plot and Cornish–Bowden transformation.

[2] = target: T2, human BuChE (Homo sapiens, UniProt P06276); experiment: Inhibition constants (Dixon and Cornish–Bowden plots), BuChE; format: biochemical
T2 construct: butyrylcholiesterase from human plasma; purchased Sigma-Aldrich; host or cells: human plasma
T2 sequence (P06276 29-602): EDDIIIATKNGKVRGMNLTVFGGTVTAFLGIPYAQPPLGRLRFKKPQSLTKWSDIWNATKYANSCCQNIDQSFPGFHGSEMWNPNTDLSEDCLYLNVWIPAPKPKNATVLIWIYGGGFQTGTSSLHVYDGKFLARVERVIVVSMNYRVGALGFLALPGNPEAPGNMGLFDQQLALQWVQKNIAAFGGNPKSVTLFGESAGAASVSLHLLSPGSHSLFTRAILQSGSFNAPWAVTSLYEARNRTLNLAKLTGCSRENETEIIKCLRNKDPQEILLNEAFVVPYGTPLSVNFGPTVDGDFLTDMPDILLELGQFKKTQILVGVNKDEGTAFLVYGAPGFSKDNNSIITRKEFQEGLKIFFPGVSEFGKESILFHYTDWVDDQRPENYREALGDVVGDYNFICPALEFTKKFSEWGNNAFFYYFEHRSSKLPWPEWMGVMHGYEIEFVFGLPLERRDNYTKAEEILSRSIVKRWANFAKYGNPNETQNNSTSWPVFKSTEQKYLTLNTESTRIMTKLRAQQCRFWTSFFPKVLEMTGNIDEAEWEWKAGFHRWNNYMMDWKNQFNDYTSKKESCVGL
Method: as §1, §2

[3] = target: T3, brain AChE (Mus musculus, UniProt P21836); experiment: Brain AChE inhibition in vivo; parameters: species or system mice; details: ip
T3 construct: Whole-brain homogenates were prepared in a Potter homogeniser; from tissue; host or cells: whole brain of CD-1 mice
T3 sequence (P21836 32-614): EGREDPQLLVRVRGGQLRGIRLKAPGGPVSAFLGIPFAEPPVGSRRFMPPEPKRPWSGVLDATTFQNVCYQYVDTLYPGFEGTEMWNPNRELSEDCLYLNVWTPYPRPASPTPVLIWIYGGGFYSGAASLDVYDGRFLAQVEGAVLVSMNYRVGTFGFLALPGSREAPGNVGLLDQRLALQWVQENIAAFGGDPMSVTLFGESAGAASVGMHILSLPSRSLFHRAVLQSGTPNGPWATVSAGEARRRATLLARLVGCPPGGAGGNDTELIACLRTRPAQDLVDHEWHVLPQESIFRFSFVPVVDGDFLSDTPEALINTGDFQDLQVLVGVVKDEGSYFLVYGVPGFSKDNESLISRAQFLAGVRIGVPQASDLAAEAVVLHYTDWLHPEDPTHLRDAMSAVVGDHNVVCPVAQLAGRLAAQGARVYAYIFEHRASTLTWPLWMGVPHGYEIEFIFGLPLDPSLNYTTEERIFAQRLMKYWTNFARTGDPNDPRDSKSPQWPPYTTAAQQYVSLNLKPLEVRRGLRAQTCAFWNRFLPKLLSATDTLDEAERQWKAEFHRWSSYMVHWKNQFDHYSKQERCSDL
Method: Bisuracil 3c was identified as the most promising for the inhibition of brain AChE in vivo. […].
For the brain AChE inhibition assay, the brains of mice were removed 30 min after i.p. injection of the tested compound (experimental group, n = 6 mice) or following i.p. vehicle injection (control group, n = 6 mice). The brains were subsequently frozen in liquid nitrogen. Whole-brain homogenates were prepared in a Potter homogeniser with 0.05 M Tris–HCl, 1% Triton X–100, 1M NaCl, and 2 mM ethylenediaminetetraacetic acid (pH 7.0; 4 °C; 1 part brain to 2 parts of buffer). The homogenate was centrifuged (14,000× g rpm; t = 4 °C) for 10 min using an Eppendorf 5430R centrifuge with an FA–45–30–11 rotor (Eppendorf AG, Hamburg, Germany). AChE activity in brain homogenates was measured using the method described by Dingova et al. with modification. […] The production of yellow 5–thio–2–nitro–benzoate anion resulting from the reduction of DTNB by thiocholine (the product of enzymatic hydrolysis of ATCH) was measured spectrophotometrically using a Shimadzu UV-1800 spectrophotometer (Shimadzu Co., Kyoto, Japan) according to Ellman’s method. The rate of thiocholine production over 20 min (from 10 to 30 min) was calculated. […] AChE activity was expressed in relation to the amount of total protein, which was determined by the Bradford method.

[4] = test system: mice; experiment: Open-field test; format: in vivo; details: 2b 0.01 mg/kg, 3c 5 mg/kg, i.p.
Method: The ability of effective doses of bisuracil 2b (0.01 mg/kg) and bisuracil 3c (5 mg/kg) to induce incapacitation was evaluated. Locomotor activity, measured as the total distance travelled, and exploratory behaviour, assessed by the number of rearings (head inclinations) and head dips, were evaluated using the open-field test. Additionally, motor coordination was analysed using the rotarod test, where the ability of mice to stay on the rotating rod was recorded. The compounds were administered i.p. 30 min before testing, while the control group received an equivalent volume of the vehicle.
To analyse motor function, rotarod and open-field tests were carried out. Mice were randomly divided into 3 groups (n = 12): a control group of mice and groups of mice treated with tested compounds. Tests were conducted 1 h after compound exposure. To assess motor function, mice were first placed on a rotarod treadmill (Ugo Basile, Italy). Rotation speed was fixed at 15 rpm, and the time that each mouse remained on the rod was recorded as the score, with a maximum duration of 300 s per trial. Each mouse underwent 3 trials. After recording the length of time that mice managed to remain on the rotarod (latency to fall), the average of three trials was used for further analysis. Following the rotarod test, motor function was studied in an open field apparatus (Open Science, Krasnogorsk, Russia), as described in [39]. The numbers of rearing and head dips were estimated as indexes of exploratory activity. To assess motor function, the distance travelled in centimetres in the arena was measured, using VideoMot2 software (Version 8.02 (131) 03-07-17 (TSE Systems, Bad Homburg, Germany).

T1 sequence (P22303 32-614): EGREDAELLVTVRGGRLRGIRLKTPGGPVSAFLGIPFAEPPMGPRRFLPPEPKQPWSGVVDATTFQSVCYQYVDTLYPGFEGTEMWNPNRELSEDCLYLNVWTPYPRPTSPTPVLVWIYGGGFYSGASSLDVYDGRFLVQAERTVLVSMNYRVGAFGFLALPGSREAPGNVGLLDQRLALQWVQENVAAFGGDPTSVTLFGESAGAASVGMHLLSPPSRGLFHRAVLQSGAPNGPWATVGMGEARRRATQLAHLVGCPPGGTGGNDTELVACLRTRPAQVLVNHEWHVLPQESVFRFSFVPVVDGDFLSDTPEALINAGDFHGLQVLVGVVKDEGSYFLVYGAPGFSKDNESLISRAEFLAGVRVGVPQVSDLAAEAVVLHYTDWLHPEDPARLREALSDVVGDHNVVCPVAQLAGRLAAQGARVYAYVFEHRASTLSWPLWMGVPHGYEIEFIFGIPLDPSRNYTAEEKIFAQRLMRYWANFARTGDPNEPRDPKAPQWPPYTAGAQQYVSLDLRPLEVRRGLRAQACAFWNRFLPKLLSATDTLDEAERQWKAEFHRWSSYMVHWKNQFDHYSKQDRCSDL

CCN(CCCCCn1c(=O)ccn(CCCCCn2c(C)cc(=O)n(C)c2=O)c1=O)Cc1ccccc1C#N [3c]
Kui (uncompetitive inhibition constant), AChE ([1]; ATCh as substrate): 4.45 ± 1.76 nM
Ki ([1]; ATCh as substrate, read-out: Kci (competitive inhibition constant), AChE): 0.7 ± 0.04 nM
type of AChE inhibition ([1]; Dixon and Cornish–Bowden plots): mixed type
Kui (uncompetitive inhibition constant), BuChE ([2]; BuTCh as substrate): 0.68 ± 0.08 мM
Ki ([2]; BuTCh as substrate, read-out: Kci (competitive inhibition constant), BuChE): 40 ± 7 µM
type of BuChE inhibition ([2]; Dixon and Cornish–Bowden plots): mixed type
inhibition at 5 mg/kg [3]: 14.9 ± 3.8%
inhibition at 10 mg/kg [3]: 54.2 ± 6.6%
distance travelled (open field) vs control group [4]: no significant differences
number of rearings or head dips (open field) [4]: neither of the tested compounds significantly influenced
